{"source": "paper PMC3884022", "about": "(Journal of Hematology & Oncology, 2014)", "key": {"[1]": {"tested_on": "AKT2", "design": "method as in earlier work", "conditions": "cited from earlier work"}, "[2]": {"tested_on": "AKT1", "design": "method as in earlier work", "conditions": "cited from earlier work"}, "[3]": {"tested_on": "NCI-H292 and A2780 tumor cells", "conditions": "with carboplatin and docetaxel; cited from earlier work"}, "[4]": {"tested_on": "patients with advanced solid tumors", "description": "The dose-escalation phase in all schedules followed a toxicity probability interval approach, where the aim was to target a dose with a DLT rate of 30% [20].\nFor all treatment schedules, safety assessments were conducted at baseline and on days 1, 2, 3, 7, 15, and 21 of cycle 1, and weekly in cycles 2 to 6. From cycle 7 onwards, safety assessments were performed on day 1 of each cycle. […] In addition to glucose monitoring, serum c-peptide and whole blood HbA1c were measured at baseline and monthly. Adverse events (AEs) and laboratory variables were assessed using the National Cancer Institute Common Terminology Criteria for Adverse Events (NCI-CTCAE) version 3.0 ^1."}, "[5]": {"tested_on": "non-small cell lung (NSCLC) cell lines and breast cancer cell lines", "conditions": "with erlotinib and lapatinib; including RAS mutant lines; cited from earlier work"}, "[6]": {"tested_on": "CYP3A", "assay": "Metabolism in human microsomes", "assay_type": "in vitro ADME"}, "[7]": {"target": "2D6 (Homo sapiens, UniProt P10635)", "sequence (P10635 whole entry)": "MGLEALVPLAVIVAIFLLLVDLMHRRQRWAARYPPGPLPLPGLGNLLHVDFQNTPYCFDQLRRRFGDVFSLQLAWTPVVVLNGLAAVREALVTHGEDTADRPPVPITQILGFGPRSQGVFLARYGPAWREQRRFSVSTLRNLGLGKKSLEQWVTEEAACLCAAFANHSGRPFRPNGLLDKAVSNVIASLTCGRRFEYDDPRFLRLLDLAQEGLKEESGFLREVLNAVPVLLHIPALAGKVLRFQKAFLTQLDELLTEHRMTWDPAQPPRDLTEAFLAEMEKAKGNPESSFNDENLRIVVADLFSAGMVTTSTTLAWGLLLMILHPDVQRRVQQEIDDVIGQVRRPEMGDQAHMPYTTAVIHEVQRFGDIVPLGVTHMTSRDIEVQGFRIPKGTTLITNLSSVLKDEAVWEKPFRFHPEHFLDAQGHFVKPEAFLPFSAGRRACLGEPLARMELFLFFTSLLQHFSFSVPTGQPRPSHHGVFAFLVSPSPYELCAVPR", "assay": "CYP2D6 inhibition", "assay_type": "in vitro ADME"}, "[8]": {"tested_on": "PC-3 prostate and NCI-H462 tumor xenografts", "conditions": "with docetaxel, carboplatin, and gemcitabine; cited from earlier work"}, "[9]": {"tested_on": "CYP3A", "assay": "CYP3A induction (mRNA and activity)", "assay_type": "in vitro ADME", "conditions": "at 0.1 to 10 μM"}, "[10]": {"assay": "Phase 1 combination study: MK-2206 pharmacokinetics", "assay_type": "in vivo, human", "conditions": "for Tmax / half-life: first dose; for Tmax: read-out: T max, median (range); for half-life: read-out: t 1/2, harmonic mean ± pseudo SD (converted)", "description": "For the Q3W schedule, samples were taken in cycle 1 on days 1 to 3 as per the QOD schedule, then on days 5, 7, 15, and in cycle 2 on day 1. Blood samples were collected predose and just before the end of the infusion for carboplatin, paclitaxel, and docetaxel for archival and possible PK analysis. Another sample was taken 30 minutes into the infusion of paclitaxel. These samples were archived for possible future analysis to investigate if any unexpected toxicities may have been as a result of a PK interaction. Docetaxel PK samples were analyzed in view of the DLT of febrile neutropenia observed in arm 2; however, PK parameters, such as half-life (t1/2) or systemic exposure of paclitaxel, docetaxel, carboplatin, and erlotinib, could not be evaluated due to the sparse blood sampling design used in this study.\nFor QW dosing, samples were taken in cycle 1 on day 1 (predose, 2, 4, 6, 10, and 24 hours postdose), day 3 (48 hours postdose), and day 5 (96 hours postdose), then on days 8 and 15 (predose). This sampling schedule was repeated in cycle 2, except for the day 15 predose sample, which was omitted. For the QOD schedule, PK sampling for erlotinib was performed in cycle 1 on day 1 (predose, 2 and 4 hours postdose) and day 21 (2 and 4 hours postdose); for the QW schedule, sampling was performed in cycle 1 on day 1 (predose, 2 and 4 hours postdose) and in cycle 2 on day 1 (2 and 4 hours postdose). […] Blood samples were not analyzed for erlotinib concentrations as the potential for a marked drug-drug interaction with erlotinib as a victim was considered to be low as erlotinib is metabolized by both CYP3A and CYP1A."}, "[11]": {"target": "2C9 (Homo sapiens, UniProt P11712)", "sequence (P11712 whole entry)": "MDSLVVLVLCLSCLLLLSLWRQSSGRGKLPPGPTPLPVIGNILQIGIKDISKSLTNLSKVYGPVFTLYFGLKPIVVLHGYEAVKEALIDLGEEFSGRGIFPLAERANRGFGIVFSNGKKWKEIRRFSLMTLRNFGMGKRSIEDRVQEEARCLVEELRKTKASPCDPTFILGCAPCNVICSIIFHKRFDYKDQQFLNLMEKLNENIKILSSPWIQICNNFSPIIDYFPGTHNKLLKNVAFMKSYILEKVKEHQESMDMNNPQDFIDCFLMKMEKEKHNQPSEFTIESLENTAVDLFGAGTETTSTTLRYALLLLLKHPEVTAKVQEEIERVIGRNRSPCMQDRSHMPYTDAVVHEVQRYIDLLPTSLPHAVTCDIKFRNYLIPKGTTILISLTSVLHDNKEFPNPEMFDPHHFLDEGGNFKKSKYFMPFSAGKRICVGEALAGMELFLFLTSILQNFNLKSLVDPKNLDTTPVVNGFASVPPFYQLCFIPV", "assay": "CYP2C9 inhibition", "assay_type": "in vitro ADME"}, "[12]": {"tested_on": "AKT3", "design": "method as in earlier work", "conditions": "cited from earlier work"}, "[13]": {"tested_on": "mouse NCI-H292 tumor xenografts", "conditions": "3 times per week and QW schedule of MK-2206; cited from earlier work"}, "[14]": {"conditions": "human, plasma, oral, arm 1 carboplatin AUC 6 + paclitaxel 200 mg/m^2, MK-2206 90 mg Q3W, 5 patients"}, "[15]": {"conditions": "human, plasma, oral, arm 1 carboplatin AUC 6 + paclitaxel 200 mg/m^2, MK-2206 200 mg Q3W, 5 patients"}, "[16]": {"conditions": "human, plasma, oral, arm 2 docetaxel 60 mg/m^2, MK-2206 90 mg Q3W, 3 patients"}, "[17]": {"conditions": "human, plasma, oral, arm 2 docetaxel 60 mg/m^2, MK-2206 200 mg Q3W, 4 patients"}, "[18]": {"conditions": "human, plasma, oral, arm 3 erlotinib 100 mg, MK-2206 135 mg QW, 6 patients"}, "[19]": {"conditions": "human, plasma, oral, arm 3 erlotinib 150 mg QD, MK-2206 135 mg QW, 6 patients"}}, "note": "Where two headings read alike, the source gives them in different places."}
{"smiles": "NC1(c2ccc(-c3nc4ccn5c(=O)[nH]nc5c4cc3-c3ccccc3)cc2)CCC1", "note": "[MK-2206]", "values": [{"measurement": "IC50", "setting": "[1]", "value": 12, "unit": "nM"}, {"measurement": "IC50", "setting": "[2]", "value": "[…]"}, {"measurement": "inhibition of tumor cell growth in combination", "setting": "[3]", "value": "synergy"}, {"measurement": "vomiting, frequency of AE", "setting": "[4]; all arms and schedules (N = 72)", "value": 36, "unit": "%"}, {"measurement": "rash, frequency", "setting": "[4]; arm 1, Q3W schedule", "value": 25, "unit": "%"}, {"measurement": "MTD of MK-2206", "setting": "[4]; arm 1, Q3W, with carboplatin AUC 6 and paclitaxel 200 mg/m^2", "value": 135, "unit": "mg"}, {"measurement": "MTD of MK-2206", "setting": "[4]; arm 1, QOD days 1, 3, 5, 7, PO, with carboplatin AUC 6 and paclitaxel 200 mg/m^2", "value": 45, "unit": "mg"}, {"measurement": "MTD of MK-2206", "setting": "[4]; arm 2, Q3W, with docetaxel", "value": "not reached"}, {"measurement": "MAD of MK-2206", "setting": "[4]; arm 2, Q3W, with docetaxel 60 mg/m^2", "value": 200, "unit": "mg"}, {"measurement": "DLT rate", "setting": "[4]; arm 3, MK-2206 135 mg QW with erlotinib", "value": 17, "unit": "%"}, {"measurement": "MTD of MK-2206", "setting": "[4]; arm 3, QW, with erlotinib", "value": "not reached"}, {"measurement": "Alopecia Grade 4", "setting": "[4]; human, in vivo", "value": "0 n (%)"}, {"measurement": "Decreased appetite Grade 4", "setting": "[4]; human, in vivo", "value": "0 n (%)"}, {"measurement": "Diarrhea Grade 4", "setting": "[4]; human, in vivo", "value": "0 n (%)"}, {"measurement": "Fatigue Grade 4", "setting": "[4]; human, in vivo", "value": "0 n (%)"}, {"measurement": "Nausea Grade 4", "setting": "[4]; human, in vivo", "value": "0 n (%)"}, {"measurement": "Pruritus Grade 4", "setting": "[4]; human, in vivo", "value": "0 n (%)"}, {"measurement": "Rash Grade 4", "setting": "[4]; human, in vivo", "value": "0 n (%)"}, {"measurement": "Stomatitis Grade 4", "setting": "[4]; human, in vivo", "value": "0 n (%)"}, {"measurement": "Vomiting Grade 4", "setting": "[4]; human, in vivo", "value": "0 n (%)"}, {"measurement": "alopecia, frequency of AE", "setting": "[4]; human, in vivo", "value": 40, "unit": "%"}, {"measurement": "anorexia, frequency of AE", "setting": "[4]; human, in vivo", "value": 44, "unit": "%"}, {"measurement": "diarrhea, frequency of AE", "setting": "[4]; human, in vivo", "value": 44, "unit": "%"}, {"measurement": "fatigue, frequency of AE", "setting": "[4]; human, in vivo", "value": 68, "unit": "%"}, {"measurement": "hyperglycemia, frequency of AE", "setting": "[4]; human, in vivo", "value": 25, "unit": "%"}, {"measurement": "nausea, frequency of AE", "setting": "[4]; human, in vivo", "value": 49, "unit": "%"}, {"measurement": "rash, frequency", "setting": "[4]; human, in vivo", "value": 40, "unit": "%"}, {"measurement": "rash, frequency of AE", "setting": "[4]; human, in vivo", "value": 47, "unit": "%"}, {"measurement": "rate of febrile neutropenia", "setting": "[4]; human, in vivo", "value": 60, "unit": "%"}, {"measurement": "stomatitis, frequency of AE", "setting": "[4]; human, in vivo", "value": 32, "unit": "%"}, {"measurement": "time to full reversal of rash after dose interruption and appropriate treatment", "setting": "[4]; human, in vivo", "value": "7 to 14", "unit": "days"}, {"measurement": "Dose-limiting toxicities", "setting": "[4]; human, in vivo, 21 days", "value": 0}, {"measurement": "inhibition of proliferation and induction of apoptosis in combination", "setting": "[5]", "value": "[…]"}, {"measurement": "metabolism to oxidative metabolites", "setting": "[6]", "value": "mediated primarily by CYP3A"}, {"measurement": "IC50", "setting": "[7]", "value": "> 35000", "unit": "nM"}, {"measurement": "inhibition of xenograft growth in combination", "setting": "[8]", "value": "synergised"}, {"measurement": "effect on CYP3A mRNA and activity", "setting": "[9]", "value": "insignificant effect"}, {"measurement": "mean Ctrough", "setting": "[10]; 45-mg dose level in all schedules", "value": "> 56.8", "unit": "nM"}, {"measurement": "mean 48-hr plasma concentration", "setting": "[10]; 60-mg QOD (arm 1), last PK sampling time", "value": "above 56.8 nM"}, {"measurement": "AUC, Cmax and Tmax following the first MK-2206 dose", "setting": "[10]; all treatment arms, compared with single-agent phase 1 study (ref 18)", "value": "within ranges observed at the corresponding dose levels in the single-agent phase 1 study"}, {"measurement": "apparent t1/2 in combination with carboplatin and erlotinib", "setting": "[10]; compared with monotherapy", "value": "consistent with that observed with monotherapy"}, {"measurement": "Tmax", "setting": "[10]; human, plasma, oral, arm 1 carboplatin AUC 6 + paclitaxel 200 mg/m^2, MK-2206 45 mg QOD, 6 patients", "value": 4, "unit": "h"}, {"measurement": "Tmax", "setting": "[10]; human, plasma, oral, arm 1 carboplatin AUC 6 + paclitaxel 200 mg/m^2, MK-2206 60 mg QOD, 8 patients", "value": 8, "unit": "h"}, {"measurement": "Tmax", "setting": "[10]; [14]", "value": 6, "unit": "h"}, {"measurement": "half-life", "setting": "[10]; [14]", "value": "79.5 ± 17.3", "unit": "h"}, {"measurement": "half-life", "setting": "[10]; human, plasma, oral, arm 1 carboplatin AUC 6 + paclitaxel 200 mg/m^2, MK-2206 135 mg Q3W, 6 patients", "value": "73 ± 20", "unit": "h"}, {"measurement": "Tmax", "setting": "[10]; [15]", "value": 4, "unit": "h"}, {"measurement": "half-life", "setting": "[10]; [15]", "value": "74.7 ± 13.4", "unit": "h"}, {"measurement": "Tmax", "setting": "[10]; [16]", "value": 4, "unit": "h"}, {"measurement": "half-life", "setting": "[10]; [16]", "value": "105 ± 15", "unit": "h"}, {"measurement": "half-life", "setting": "[10]; human, plasma, oral, arm 2 docetaxel 60 mg/m^2, MK-2206 135 mg Q3W, 3 patients", "value": "106 ± 32.7", "unit": "h"}, {"measurement": "Tmax", "setting": "[10]; [17]", "value": 6, "unit": "h"}, {"measurement": "half-life", "setting": "[10]; [17]", "value": "86.9 ± 11.5", "unit": "h"}, {"measurement": "Tmax", "setting": "[10]; human, plasma, oral, arm 2 docetaxel 75 mg/m^2, MK-2206 45 mg QOD, 5 patients", "value": 6, "unit": "h"}, {"measurement": "Tmax", "setting": "[10]; human, plasma, oral, arm 3 erlotinib 100 mg, MK-2206 45 mg QOD, 9 patients", "value": 6, "unit": "h"}, {"measurement": "Tmax", "setting": "[10]; [18]", "value": 6, "unit": "h"}, {"measurement": "half-life", "setting": "[10]; [18]", "value": "60.6 ± 6.6", "unit": "h"}, {"measurement": "Tmax", "setting": "[10]; human, plasma, oral, arm 3 erlotinib 150 mg QD, MK-2206 45 mg QOD, 4 patients", "value": 7, "unit": "h"}, {"measurement": "Tmax", "setting": "[10]; [19]", "value": 4, "unit": "h"}, {"measurement": "half-life", "setting": "[10]; [19]", "value": "50.2 ± 10.3", "unit": "h"}, {"measurement": "concentration at 48 h", "setting": "[10]; human, plasma, oral, 45-mg QOD (arm 3), last PK sampling time", "value": "> 56.8", "unit": "nM"}, {"measurement": "IC50", "setting": "[11]", "value": "> 35000", "unit": "nM"}, {"measurement": "IC50", "setting": "[12]", "value": 65, "unit": "nM"}, {"measurement": "tumor growth suppression in combination with erlotinib", "setting": "[13]", "value": "significantly greater in vivo tumor growth suppression and tumor regressions over each single agent"}]}
